# Measured values reported in US10745393B2, “Small molecular probes, processes and use thereof” (JAWAHARLAL NEHRU CENTRE FOR ADVANCED SCIENTIFIC RESEARCH, priority 2014, dated 2020).
# Like-named read-outs stand apart in the source and are kept apart here. Marks after values point to notes of the source that are not given here.
# Tests used:
# [1] = test system: DNA; settings: cited from earlier work; for Fluorescence qauntum yield (ΦF) DNA bound dye: Table 3, superscript a, commercial dyes
# [2] = test system: cells; settings: Table 3, commercial dyes; cited from earlier work
# [3] = test system: cells; settings: Table 3, commercial dyes; cited from earlier work; remark: listed apart in the source
# [4] = target: ThT/Aβ42 aggregate complex (Homo sapiens, UniProt P05067); assay: ThT displacement / FRET assay; format: binding; settings: excess ThT 50 μM; TC 1 μM, Aβ42 50 μM
# [5] = test system: Aβ plaques in CSF samples; assay: Detection of amyloid plaques in CSF samples by fluorescence; settings: ThT 20 μM
# Description: In the present experiment, Amyloid plaques in the CSF sample are detected as it is a hallmark of AD using ThT and QC. […] QC (10 μM) is used to detect Aβ plaques in the same set of CSF samples, which show the same trend as Thioflavin assay and stains CSF3, CSF5, CSF6 and CSF12 samples (FIG. 57 and table 6).
# [6] = test system: HEK293 cells; assay: DNase I and RNase digestion studies; format: cell-based; settings: 2 hours
# Description: DNase I is known to degrade nuclear DNA while RNase degrades RNA in the cytoplasm by catalyzing phosphodiester bonds cleavage. HEK293 cells are fixed with chilled methanol for about 1 minute at room temperature and permeabilized with 0.1% Triton X-100 in PBS for about 2×5 minutes. After rinsing with PBS twice, for one set of experiments, cells are treated with probe TC (5 μM) for about 15 min at room temperature in three adjacent wells. A total of about 200 μL PBS (as control experiment), about 100 μg/mL DNase I (Sigma), or about 30 μg/ml DNase-Free RNase (GE) is added into the three adjacent wells and incubated at about 37° C. for about 2 hours. For another set of experiments, instead of treating with probe TC, cells are only treated with about 200 μL PBS (as control experiment), about 100 μg/ml DNase I (Sigma), or about 30 μg/mL DNase-Free RNase (GE) by adding into the three adjacent wells and incubating at about 37° C. for about 2 hours. […] After two more washes in PBS with 0.1% Triton X-100, the cover slips are washed in PBS, rinsed in ddH2O and briefly dipped in 100% ethanol. After a quick dry, cover slips are mounted with 70% glycerol. Images are captured using a Carl Zeiss Laser Scanning Microscope (LSM510 META) using an equal exposure time for control, DNase I, and RNase experiments. Experiments are done in duplicate.
# [7] = Absorption, emission and quantum yield of probes in Tris-HCl buffer without DNA; format: physicochemical; settings: for ΦF in Buffer: Tris-HCl buffer (100 mM, pH 7.4), absence of DNA; for emission (fluorescence) maxima / absorption maxima: Tris-HCl buffer, no DNA; for emission (fluorescence) maxima: very weak fluorescence; for absorption maxima: probe 10 μM
# [8] = test system: (AT)20; assay: Fluorescence response / quantum yield of probes with dsDNA (AT)20; format: binding; settings: for ΦF with (AT)20: Tris-HCl buffer (100 mM, pH 7.4)
# [9] = test system: (D1)mix; assay: Fluorescence response / quantum yield of probes with dsDNA (D1)mix; format: binding; settings: Tris-HCl buffer (100 mM, pH 7.4)
# [10] = test system: (GC)10; assay: Fluorescence response / quantum yield of probes with dsDNA (GC)10; format: binding; settings: for ΦF with (GC)10: Tris-HCl buffer (100 mM, pH 7.4); for fluorescence change in presence of (GC)10: probe 10 μM
# [11] = test system: DNA; assay: Comparison of DNA dyes: sequence selectivity and fluorescence of free/DNA bound dye; format: binding
# [12] = Absorption, emission and quantum yield of probes without Aβ42 aggregates; format: physicochemical
# [13] = target: Aβ42 aggregates (Homo sapiens, UniProt P05067); assay: Absorption / fluorescence response with Aβ42 fibrillar aggregates; format: binding
# [14] = test system: (AT)10; assay: Absorption / fluorescence response of probes with dsDNA (AT)10; format: binding; settings: for fluorescence enhancement in presence of (AT)10: probe 10 μM, DNA 0 to 12 μM
# [15] = test system: ssDNA oligonucleotides (dA10, dT10, dG10 and dC10); assay: Fluorescence emission in presence of ssDNA oligonucleotides; format: binding; settings: probe 10 μM, Tris-HCl buffer
# [16] = fluorescence studies with dsDNAs
# Sequence of Aβ42 aggregates (P05067 672-713 limits assumed): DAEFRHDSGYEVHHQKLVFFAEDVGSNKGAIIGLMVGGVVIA
# Sequence of ThT/Aβ42 aggregate complex (P05067 672-713 limits assumed, one chain of several): as the sequence (P05067 672-713 limits assumed) above
structure (smiles),measurement,setting,value
"N=C(N)c1ccc(-c2cc3ccc(C(=N)N)cc3[nH]2)cc1 [DAPI, 4′,6-Diamidino-2-phenylindole]",Fluorescence maxima DNA bound dye,"[1]; Table 3, commercial dyes",450 nm
same,Fluorescence maxima free dye,"[1]; Table 3, commercial dyes",496 nm
same,Selectivity,"[1]; Table 3, commercial dyes",AT rich
same,Fluorescence qauntum yield (ΦF) DNA bound dye,[1],0.42^a
same,Cell permeability,[2],Semi-Permeable
same,Toxicity,[3],Non-toxic
"Cc1ccc2c(c1)sc(-c1ccc(N(C)C)cc1)[n+]2C.[Cl-] [ThT, Thioflavin T, reference compound]",displacement of TC from its complex with Aβ42 aggregates by excess ThT,[4],does not displace TC
same,Normalized fluorescence intensity (ThT),[5]; sample CSF1,14.35
same,Normalized fluorescence intensity (ThT),[5]; sample CSF2,5.60
same,Normalized fluorescence intensity (ThT),[5]; sample CSF3,18.25
same,Normalized fluorescence intensity (ThT),[5]; sample CSF4,7.45
same,Normalized fluorescence intensity (ThT),[5]; sample CSF5,40.65
same,Normalized fluorescence intensity (ThT),[5]; sample CSF6,24.40
same,Normalized fluorescence intensity (ThT),[5]; sample CSF7,5.75
same,Normalized fluorescence intensity (ThT),[5]; sample CSF8,8.40
same,Normalized fluorescence intensity (ThT),[5]; sample CSF9,7.50
same,Normalized fluorescence intensity (ThT),[5]; sample CSF10,3.26
same,Normalized fluorescence intensity (ThT),[5]; sample CSF11,8.35
same,Normalized fluorescence intensity (ThT),[5]; sample CSF12,37.50
same,Normalized fluorescence intensity (ThT),[5]; sample CSF13,4.20
same,Normalized fluorescence intensity (ThT),[5]; sample CSF14,4.52
CC[n+]1c(-c2ccccc2)c2cc(N)ccc2c2ccc(N)cc21 [Ethidium bromide],Cell permeability,[2],Impermeable
same,Toxicity,[3],Toxic
"CN1CCN(c2ccc3[nH]c(-c4ccc5[nH]c(-c6ccc(O)cc6)nc5c4)nc3c2)CC1 [Hoechst33258, Hoechst 33258]",fluorescence nuclear staining after DNase I digestion,[6]; DNase I about 100 μg/mL,almost completely diminished
same,fluorescence nuclear staining after RNase digestion,[6]; RNase about 30 μg/mL,does not affect the fluorescence staining
same,Fluorescence maxima DNA bound dye,[1],490/450 nm
same,Fluorescence maxima free dye,[1],490/450 nm
same,Cell permeability,[2],Permeable
same,Toxicity,[3],Non-Toxic
"C[n+]1c(/C=C/c2ccc3ccc4cccc5ccc2c3c45)sc2ccccc21 [TP, thiazole pyrene]",ΦF in Buffer,[7],0.002
same,emission (fluorescence) maxima,[7],623 nm
same,absorption maxima,[7],460 nm
same,ΦF with (AT)20,[8],0.042
same,ΦF with (D1)mix,[9],0.026
same,ΦF with (GC)10,[10],0.005
same,"preferential binding affinity, AT-sites versus GC-sites",[11],towards AT-sites than GC-sites
same,emission maximum in absence of Aβ42 aggregates,[12],623 nm
same,absorption maximum in absence of Aβ42 aggregates,[12]; pH 7.4,460 nm
same,change in absorption and colour with Aβ42 aggregates,[13],fails to exhibit any detectable change in absorption
same,change in fluorescence in presence of Aβ42 aggregates,[13],does not show any detectable change in the fluorescence behavior
CC[N+](C)(CC)CCC[n+]1c(-c2ccccc2)c2cc(N)ccc2c2ccc(N)cc21.[I-].[I-] [Propidium iodide],comparative fluorescence response in presence of (AT)20,"[8]; dye 10 μM, Tris-HCl buffer",do not show appreciable fluorescence changes
same,Fluorescence maxima DNA bound dye,"[1]; Table 3, commercial dyes",617 nm
same,Fluorescence maxima free dye,"[1]; Table 3, commercial dyes",646 nm
same,Fluorescence qauntum yield (ΦF) DNA bound dye,[1],0.13^a
same,Cell permeability,[2],Impermeable
same,Toxicity,[3],Toxic
"CCN(CC)c1ccc2cc(/C=C/c3sc4ccccc4[n+]3CC)c(=O)oc2c1 [TCE, (E)-3-(2-(N-ethyl-benzo[d]thiazol-2-yl)vinyl)-7-(diethylamino)-2H-chromen-2-one]",fluorescence enhancement in presence of (AT)10,[14],5 fold
same,fluorescence change in presence of (GC)10,[10],no appreciable change
same,emission behaviour in presence of ssDNA,[15],do not show significant changes in the emission behaviour
same,"preferential binding affinity, AT-sites versus GC-sites",[11]; [16],towards AT-sites than GC-sites
"C#CC[n+]1c(/C=C/c2cc3ccc(N(CC)CC)cc3oc2=O)sc2ccccc21 [TCP, (E)-3-(2-(N-(prop-2-ynyl)-benzo[d]thiazol-2-yl)vinyl)-7-(diethylamino)-2H-chromen-2-one]",probe concentration at which fluorescence saturates,"[14]; fixed concentration of DNAs ((AT)10, (D1)mix, (D2)mix), FIG. 32",about 5 μM
same,fluorescence enhancement in presence of (AT)10,[14],6 fold
same,fluorescence change in presence of (GC)10,[10],no change
same,emission behaviour in presence of ssDNA,[15],do not show significant changes in the emission behaviour
same,"preferential binding affinity, AT-sites versus GC-sites",[11]; [16],towards AT-sites than GC-sites
"CCN(CC)c1ccc2cc(/C=C/c3cc[n+](C)c4ccccc34)c(=O)oc2c1 [CL, coumarin lepidine]",ΦF in Buffer,[7],0.003
same,emission (fluorescence) maxima,[7],689 nm
same,absorption maxima,[7],519 nm
same,ΦF with (AT)20,[8],0.102
same,ΦF with (D1)mix,[9],0.052
same,ΦF with (GC)10,[10],0.007
same,"preferential binding affinity, AT-sites versus GC-sites",[11]; [16],towards AT-sites than GC-sites
